Columns and labels:
[1] = tested on: HIV mutant strain 1 (E138K/G140S/Q148H/N155H); experiment: Test Example 2: resistance evaluation test (HeLa-CD4 reporter), mutant strain 1; assay type: cell-based; conditions: FC=EC50 of mutant strain/EC50 of wild strain; HeLa-CD4 cells
How it was run: (§1)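 HeLa-CD4 reporter cells were infected with wild-type or mutant HIV in the presence of serially diluted compound and cultured 3 days. Cell lysates were read by chemiluminescent reporter assay after about 1 h at room temperature. Fold change was calculated as mutant EC50 divided by wild-type EC50.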

[2] = tested on: HIV mutant strain 2 (E92Q/E138T/G140S/Q148H); experiment: Test Example 2: resistance evaluation test (HeLa-CD4 reporter), mutant strain 2; assay type: cell-based; conditions: FC=EC50 of mutant strain/EC50 of wild strain; HeLa-CD4 cells
How it was run: as §1

[3] = tested on: HIV mutant strain 3 (E92Q/E138K/G140S/Q148H); experiment: Test Example 2: resistance evaluation test (HeLa-CD4 reporter), mutant strain 3; assay type: cell-based; conditions: FC=EC50 of mutant strain/EC50 of wild strain; HeLa-CD4 cells
Description: (§2) A serial dilution series of test samples in 96-well microplates was prepared (50 […]).
(§3) 2.5×10^4/mL of HeLa-CD4 cell suspension was dispensed into each of the microplates containing test sample, in the amount of 100 μL/well, and HIV virus liquid (wild strain and mutant strain) was then dispensed in an amount of 50 μL/well. Mixing was performed using a plate mixer and culturing was performed for three days in a CO2 incubator. After removing the cultured supernatant of each well by suction, 100 μL of the cell solution buffer in the reporter measurement kit was dispensed thereto, and freezing was conducted in a refrigerator (−80° C.). The plates frozen in the refrigerator were defrosted at room temperature, then mixed using a plate mixer and centrifuged for 5 min at 1,200 rpm. The supernatant of each well was divided to 96-well microplates (BLACK) in the amount of 20 μL in each case. The chemiluminescence reagent in the reporter assay kit was dispensed in the amount of 100 μL in each case, and, after reacting for about 1 h at room temperature, the amount of luminescence was measured using a MicroBeta TRILUX.
(§4) The degree of resistance (fold change (FC)) of each mutant strain was also calculated using the following formula. FC=EC50 of mutant strain/EC50 of wild strain (Results)

[4] = tested on: HIV mutant strain 4 (T97A/E138T/G140S/Q148H); experiment: Test Example 2: resistance evaluation test (HeLa-CD4 reporter), mutant strain 4; assay type: cell-based; conditions: FC=EC50 of mutant strain/EC50 of wild strain; HeLa-CD4 cells
Description: as §2, §3, §4

[5] = Test Example 8: metabolic stability test; assay type: in vitro ADME, human; conditions: pooled human liver microsomes, 30 min at 37° C., NADPH, compound concentration 0.5 μmol/L
How it was run: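 Pooled human liver microsomes (0.5 mg protein/mL, Tris-HCl pH 7.4) incubated with compound and 1 mmol/L NADPH for 0 or 30 min at 37° C. After methanol/acetonitrile quench, remaining parent was quantified by LC/MS/MS or SPE/MS and expressed as % of the 0 min amount.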

[6] = molecular target: T1, voltage-gated sodium channel (Nav 1.5 channel) (Homo sapiens, UniProt Q14524); experiment: Test Example 14: Nav test (patch clamp, HEK cells); assay type: cell-based; conditions: HEK cells expressing Nav 1.5 channel, whole cell patch clamp
T1 construct: expressed in transfected cells; host or cells: HEK cells
Description: Using a fully automatic patch clamp system (QPatch: Sophion Bioscience A/S), by the whole cell patch clamp method, the cells were maintained at a membrane potential of −100 mV and the induced INa when a −10 mV depolarization stimulus was applied for 20 msec was recorded. […] From the INa obtained, using analysis software (QPatch: Sophion Bioscience A/S), the absolute value of the maximum peak current was measured, with reference to the current value at the maintained membrane potential.

[7] = tested on: HIV; experiment: microbe, parasite or virus in culture; assay type: cell-based; conditions: Human immunodeficiency virus 1, MT4, 96 h, read-out: EC50 (50% HIV inhibition concentration), MT-4 cells, HIV, cultured four days, MTT; compounds of formula (I) of (A)
How it was run: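 MT-4 cells infected with HIV in the presence of serially diluted test samples and cultured four days at CO2 incubator conditions. Cell viability measured by MTT reduction (1 h), solubilised formazan read at 560/690 nm.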

[8] = tested on: HIV; experiment: Test Example 3: test for confirmation of combined use effect; assay type: cell-based; set-up: key to D value (dosewise additivity value): <-0.1 synergy, -0.1 to 0.1 additive, >0.1 antagonism
[9] = tested on: HIV; experiment: Test Example 16: anti-HIV activity in the presence of human serum protein (MT-4 cells); assay type: cell-based; conditions: 100% extrapolation value, PS=4×(EC50 with 25% human serum protein/EC50 with no human serum protein)
Description: A stage dilution series of the test samples was created on a 96-well microplate (50 μL/well).
Aliquots of human serum protein solution (human serum protein concentration 50%) were dispensed in the amount of 100 μL/well to a 96-well microplate containing the test sample. This was then left to stand for 1 h at room temperature. Culture medium in the amount of 100 μL/well in each case was dispensed to a serum-free plate for control purposes. Aliquots of MT-4 cells in the amount of 3.0×10^5/well and HIV virus liquid in the amount of 3 μL/well were mixed for the necessary number of wells and reacted for 1 h at 37° C. After the reaction, the cell suspension was centrifuged and the supernatant discarded; aliquots of infected cells were distributed to culture medium in the amount of 50 μL/well and were dispensed in the amount of 50 μL/well in each case into the wells of a 96-well microplate containing test samples and human serum protein (human serum protein concentration: 25%). Mixing was performed using a plate mixer and culturing was performed for four days with a CO2 incubator. […] MTT(3-(4, 5-dimethylthiazol-2-yl)-2, 5-diphenyltetrazolium bromide) liquid in the amount of 30 μL was dispensed to each of the wells. The reaction was performed for 1 h in a CO2 incubator. 150 μL supernatant was removed to avoid aspirating cells from the wells. 150 μL of cell solution was added and thorough mixing was performed, using a plate mixer, until all the cells were dissolved. The optical absorbance on the mixed plate was measured at two wavelengths, namely, 560 nm/690 nm, using a microplate reader.
Next, the potency shift (PS) was calculated, using the following formula. The PS is the value of the human serum protein concentration, extrapolated to 100%.

[10] = combination with compound (B) Compound C (CAI)
[11] = combination with compound (B) GS-6207 (CAI)
[12] = combination with compound (B) GSK2838232 (maturation inhibitor)
[13] = combination with compound (B) I′-189 (INLAI)
[14] = combination with compound (B) Ramipzin (3TC) (polymerase inhibitor)
[15] = combination with compound (B) VM-1500 (polymerase inhibitor)

T1 sequence (Q14524 whole entry): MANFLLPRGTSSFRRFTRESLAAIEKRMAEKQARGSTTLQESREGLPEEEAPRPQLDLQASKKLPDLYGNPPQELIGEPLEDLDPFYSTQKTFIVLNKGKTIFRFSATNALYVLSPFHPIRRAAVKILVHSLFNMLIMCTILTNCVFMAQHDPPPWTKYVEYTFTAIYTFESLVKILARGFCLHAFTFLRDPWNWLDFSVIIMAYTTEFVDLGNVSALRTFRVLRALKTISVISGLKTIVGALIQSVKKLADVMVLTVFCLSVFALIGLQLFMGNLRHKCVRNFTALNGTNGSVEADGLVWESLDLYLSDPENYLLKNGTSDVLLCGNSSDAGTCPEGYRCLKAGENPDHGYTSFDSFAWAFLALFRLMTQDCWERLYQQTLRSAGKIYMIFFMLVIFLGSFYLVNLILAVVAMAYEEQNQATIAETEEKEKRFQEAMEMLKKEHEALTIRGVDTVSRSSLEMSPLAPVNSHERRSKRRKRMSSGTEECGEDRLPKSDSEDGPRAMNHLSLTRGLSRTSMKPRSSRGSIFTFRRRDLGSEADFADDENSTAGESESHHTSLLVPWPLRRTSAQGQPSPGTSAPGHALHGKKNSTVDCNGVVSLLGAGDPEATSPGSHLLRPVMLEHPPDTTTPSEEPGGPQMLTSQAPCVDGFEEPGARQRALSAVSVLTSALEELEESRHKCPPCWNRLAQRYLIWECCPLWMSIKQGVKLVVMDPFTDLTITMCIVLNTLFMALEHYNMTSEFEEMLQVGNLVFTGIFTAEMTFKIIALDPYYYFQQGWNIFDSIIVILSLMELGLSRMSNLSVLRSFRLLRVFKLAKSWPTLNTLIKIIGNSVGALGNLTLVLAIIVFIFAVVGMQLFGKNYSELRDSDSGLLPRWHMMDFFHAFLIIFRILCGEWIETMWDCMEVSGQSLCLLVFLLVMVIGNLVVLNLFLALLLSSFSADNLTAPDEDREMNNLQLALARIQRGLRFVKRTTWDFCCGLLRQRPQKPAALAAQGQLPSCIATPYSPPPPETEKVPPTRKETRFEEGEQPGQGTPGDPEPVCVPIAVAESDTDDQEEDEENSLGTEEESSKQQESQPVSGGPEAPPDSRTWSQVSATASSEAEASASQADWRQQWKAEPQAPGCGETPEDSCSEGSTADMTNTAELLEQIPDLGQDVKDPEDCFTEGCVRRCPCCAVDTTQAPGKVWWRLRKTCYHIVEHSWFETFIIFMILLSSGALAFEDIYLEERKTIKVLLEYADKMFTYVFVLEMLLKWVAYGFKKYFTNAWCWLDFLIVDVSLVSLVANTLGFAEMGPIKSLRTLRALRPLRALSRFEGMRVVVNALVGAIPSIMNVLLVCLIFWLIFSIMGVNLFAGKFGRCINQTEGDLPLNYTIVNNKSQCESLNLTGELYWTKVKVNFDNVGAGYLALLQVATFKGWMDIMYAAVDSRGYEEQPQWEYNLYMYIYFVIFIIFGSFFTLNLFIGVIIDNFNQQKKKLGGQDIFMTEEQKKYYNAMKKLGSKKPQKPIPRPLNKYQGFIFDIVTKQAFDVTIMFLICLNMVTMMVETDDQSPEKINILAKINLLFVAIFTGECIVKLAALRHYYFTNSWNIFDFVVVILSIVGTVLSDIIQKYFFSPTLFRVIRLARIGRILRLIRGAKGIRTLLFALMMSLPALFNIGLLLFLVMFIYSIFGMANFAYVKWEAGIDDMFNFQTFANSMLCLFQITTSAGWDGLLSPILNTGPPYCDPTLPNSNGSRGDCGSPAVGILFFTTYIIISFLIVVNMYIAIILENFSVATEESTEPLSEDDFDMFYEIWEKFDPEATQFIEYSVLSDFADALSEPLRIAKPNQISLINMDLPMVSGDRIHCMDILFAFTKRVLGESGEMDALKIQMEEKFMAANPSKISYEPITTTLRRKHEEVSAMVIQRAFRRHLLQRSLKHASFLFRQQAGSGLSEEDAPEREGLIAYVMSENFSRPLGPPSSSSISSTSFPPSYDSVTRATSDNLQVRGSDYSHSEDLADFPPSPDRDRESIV

## CN1C(=O)c2c(O)c(=O)c(C(=O)NCc3ccc(F)cc3F)cn2N2CCCC[C@@H]12 [Compound I-032]
[1]
  FC in respect of mutant strain 1 (E138K/G140S/Q148H/N155H): 51
[2]
  FC in respect of mutant strain 2 (E92Q/E138T/G140S/Q148H): 18
[3]
  FC in respect of mutant strain 3 (E92Q/E138K/G140S/Q148H): Compound I-032: 7.7
[4]
  FC in respect of mutant strain 4 (T97A/E138T/G140S/Q148H): compound I-032: 10
[5]
  Remaining percentage: 103%
[6]
  ratio of maximum peak current (INa) on application of compound to that on application of medium: 92.1%

## CCN1C(=O)c2c(O)c(=O)c(-c3nnc(Cc4c(F)cc(F)cc4F)s3)cn2N2CCCC[C@@H]12 [Compound I-007]
[7]
  EC50: 1.6 nM
[1]
  FC in respect of mutant strain 1 (E138K/G140S/Q148H/N155H): 3.8
[2]
  FC in respect of mutant strain 2 (E92Q/E138T/G140S/Q148H): 6.9
[8]; [10]
  D value (dosewise additivity value): 0.059
  effect of combined use: Additive (−0.1 to −0.1: additive synergetic effect)
[8]; combination with compound (B) Darunavin (PI)
  D value (dosewise additivity value): −0.096
[8]; combination with compound (B) Darunavir (PI)
  effect of combined use: Additive (−0.1 to −0.1: additive synergetic effect)
[8]; [11]
  D value (dosewise additivity value): −0.040
  effect of combined use: Additive (−0.1 to −0.1: additive synergetic effect)
[8]; [12]
  D value (dosewise additivity value): 0.017
  effect of combined use: Additive (−0.1 to −0.1: additive synergetic effect)
[8]; [13]
  D value (dosewise additivity value): 0.053
  effect of combined use: Additive (−0.1 to −0.1: additive synergetic effect)
[8]; combination with compound (B) Lilpiperine (polymerase inhibitor)
  effect of combined use: Additive (−0.1 to −0.1: additive synergetic effect)
[8]; [14]
  D value (dosewise additivity value): −0.231
  effect of combined use: Strong synergy (−0.5 to −0.2: strong synergetic effect)
[8]; combination with compound (B) Rilpivirine (polymerase inhibitor)
  D value (dosewise additivity value): −0.054
[8]; [15]
  D value (dosewise additivity value): −0.097
  effect of combined use: Additive (−0.1 to −0.1: additive synergetic effect)
[5]
  Remaining percentage: 97.7%
[6]
  ratio of maximum peak current (INa) on application of compound to that on application of medium: 103%
[9]
  potency shift (PS) in the presence of human serum protein: 116
